Assay results reported in patent US20240238300A1, “TREATMENT METHODS FOR SUBJECTS WITH CANCER HAVING AN ABERRATION IN EGFR AND/OR HER2” (TAIHO PHARMACEUTICAL CO., LTD., priority 2021, published 2024).
Like-named read-outs stand apart in the source and are kept apart here.

Key:
[1] = target: BLK (Homo sapiens, UniProt P51451); assay: panel enzyme assay of 257 kinases; assay type: biochemical; conditions: read-out: % Inhibition by Compound (1) at 1000 nmol/L
Protocol: (§1) To investigate further kinase selectivity of Compound (1), a panel enzyme assay of 257 kinases for Compound (1) was conducted.

[2] = target: BMX (Homo sapiens, UniProt P51813); assay: panel enzyme assay of 257 kinases; assay type: biochemical; conditions: read-out: % Inhibition by Compound (1) at 1000 nmol/L
Protocol: as §1

[3] = target: BTK (Homo sapiens, UniProt Q06187); assay: panel enzyme assay of 257 kinases; assay type: biochemical; conditions: read-out: % Inhibition by Compound (1) at 1000 nmol/L
Protocol: as §1

[4] = target: DDR1 (Homo sapiens, UniProt Q08345); assay: panel enzyme assay of 257 kinases; assay type: biochemical; conditions: read-out: % Inhibition by Compound (1) at 1000 nmol/L
Protocol: as §1

[5] = target: EGFR (Homo sapiens, UniProt P00533); assay: panel enzyme assay of 257 kinases; assay type: biochemical; conditions: read-out: % Inhibition by Compound (1) at 1000 nmol/L
Protocol: as §1

[6] = target: EPHA6 (Homo sapiens, UniProt Q9UF33); assay: panel enzyme assay of 257 kinases; assay type: biochemical; conditions: read-out: % Inhibition by Compound (1) at 1000 nmol/L
Protocol: as §1

[7] = target: FLT4 (Homo sapiens, UniProt P35916); assay: panel enzyme assay of 257 kinases; assay type: biochemical; conditions: read-out: % Inhibition by Compound (1) at 1000 nmol/L
Protocol: as §1

[8] = target: HER2 (Homo sapiens, UniProt P04626); assay: panel enzyme assay of 257 kinases; assay type: biochemical; conditions: read-out: % Inhibition by Compound (1) at 1000 nmol/L
Protocol: as §1

[9] = target: HER4 (Homo sapiens, UniProt Q15303); assay: panel enzyme assay of 257 kinases; assay type: biochemical; conditions: read-out: % Inhibition by Compound (1) at 1000 nmol/L
Protocol: as §1

[10] = target: ITK (Homo sapiens, UniProt Q08881); assay: panel enzyme assay of 257 kinases; assay type: biochemical; conditions: read-out: % Inhibition by Compound (1) at 1000 nmol/L
Protocol: as §1

[11] = target: JAK3 (Homo sapiens, UniProt P52333); assay: panel enzyme assay of 257 kinases; assay type: biochemical; conditions: read-out: % Inhibition by Compound (1) at 1000 nmol/L
Protocol: as §1

[12] = target: KDR (Homo sapiens, UniProt P35968); assay: panel enzyme assay of 257 kinases; assay type: biochemical; conditions: read-out: % Inhibition by Compound (1) at 1000 nmol/L
Protocol: as §1

[13] = target: TEC (Homo sapiens, UniProt P42680); assay: panel enzyme assay of 257 kinases; assay type: biochemical; conditions: read-out: % Inhibition by Compound (1) at 1000 nmol/L
Protocol: as §1

[14] = target: TXK (Homo sapiens, UniProt P42681); assay: panel enzyme assay of 257 kinases; assay type: biochemical; conditions: read-out: % Inhibition by Compound (1) at 1000 nmol/L
Protocol: as §1

[15] = system: 257 kinases; assay: panel enzyme assay of 257 kinases, whole panel; assay type: biochemical; conditions: 1000 nmol/L
Protocol: as §1

[16] = system: MCF10A_HER2/insYVMA_v human mammary epithelial xenografts; assay: antitumor effect in nude mice bearing MCF10A_HER2/insYVMA_v xenografts; assay type: in vivo; conditions: for T/C ratio of the mean tumor volume: Day 15
Protocol: The antitumor effect of Compound (1) was evaluated in a nude mouse xenograft model of MCF10A_HER2/insYVMA_v. MCF10A_HER2/insYVMA_v was established as stably growing cells in vivo derived from MCF10A HER2/insYVMA (a human mammary epithelial cell line engineered to express the HER2 exon 20 insertion mutation A775_G776insYVMA) xenografts subcutaneously transplanted into nude mice. Compound (1) suspensions (using 0.5% w/v HPMC as vehicle) were administered orally once daily to mice at doses of 7.8, 12.5, or 20.0 mg/kg/day for 14 days. The control group received 0.5% weight per volume (w/v) hydroxypropyl methylcellulose (HPMC) solution orally once daily for 14 days.
In addition, the antitumor effect of poziotinib (an irreversible inhibitor of EGFR, HER2, and HER4) was also evaluated using this model.

[17] = brain penetrability after single oral administration; assay type: in vivo, male nude mice; conditions: male, nude, mouse
Protocol: Brain penetrability of Compound (1) in nude mice. The brain penetrability of Compound (1) was confirmed by Kp,brain values at 0.5 and 1 hour in male nude mice following a single oral administration at 50 mg/kg (Table 6). Based on the brain penetrability study and brain and plasma protein binding studies, Kp,uu,brain was calculated to be 0.26±0.05 for 0.5 hour and 0.13±0.03 for 1 hour.

[18] = target: T1, human BCRP (Homo sapiens, UniProt Q9UNQ0); assay: in vitro
T1 sequence (Q9UNQ0 1-655): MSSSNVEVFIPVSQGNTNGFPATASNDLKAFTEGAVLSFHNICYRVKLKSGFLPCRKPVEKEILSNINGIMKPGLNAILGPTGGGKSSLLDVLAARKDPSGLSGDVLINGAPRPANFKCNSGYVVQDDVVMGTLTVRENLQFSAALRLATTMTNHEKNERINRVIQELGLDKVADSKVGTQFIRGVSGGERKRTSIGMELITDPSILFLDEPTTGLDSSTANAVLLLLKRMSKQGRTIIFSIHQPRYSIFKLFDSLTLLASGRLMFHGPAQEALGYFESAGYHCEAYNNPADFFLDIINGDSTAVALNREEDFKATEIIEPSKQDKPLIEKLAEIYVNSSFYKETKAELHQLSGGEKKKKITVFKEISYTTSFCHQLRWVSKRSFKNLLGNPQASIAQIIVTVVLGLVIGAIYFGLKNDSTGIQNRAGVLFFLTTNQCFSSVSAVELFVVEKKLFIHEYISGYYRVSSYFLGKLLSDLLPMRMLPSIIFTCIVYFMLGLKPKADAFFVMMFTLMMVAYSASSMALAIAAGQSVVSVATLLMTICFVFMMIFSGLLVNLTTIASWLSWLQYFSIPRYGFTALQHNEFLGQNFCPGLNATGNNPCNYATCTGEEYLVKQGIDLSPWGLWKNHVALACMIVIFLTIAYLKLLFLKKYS

[19] = target: T1, human BCRP; assay: inhibitory effect on human BCRP, bidirectional transport of [^3H]prazosin

Sequence of BLK (P51451 whole entry, species assumed): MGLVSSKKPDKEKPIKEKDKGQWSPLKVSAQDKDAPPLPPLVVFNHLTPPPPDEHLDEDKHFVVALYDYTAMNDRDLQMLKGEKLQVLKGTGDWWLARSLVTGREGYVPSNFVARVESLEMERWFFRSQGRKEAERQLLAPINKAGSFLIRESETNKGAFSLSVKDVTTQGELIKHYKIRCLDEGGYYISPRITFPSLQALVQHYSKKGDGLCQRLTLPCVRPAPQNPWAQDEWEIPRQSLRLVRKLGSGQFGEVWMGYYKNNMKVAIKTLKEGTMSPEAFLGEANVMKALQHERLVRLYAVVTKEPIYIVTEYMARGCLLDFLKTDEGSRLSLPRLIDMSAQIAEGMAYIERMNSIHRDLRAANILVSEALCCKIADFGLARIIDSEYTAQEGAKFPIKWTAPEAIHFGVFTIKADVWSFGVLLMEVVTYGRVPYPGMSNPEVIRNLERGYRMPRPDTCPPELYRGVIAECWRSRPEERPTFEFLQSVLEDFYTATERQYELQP
Sequence of TXK (P42681 whole entry, species assumed): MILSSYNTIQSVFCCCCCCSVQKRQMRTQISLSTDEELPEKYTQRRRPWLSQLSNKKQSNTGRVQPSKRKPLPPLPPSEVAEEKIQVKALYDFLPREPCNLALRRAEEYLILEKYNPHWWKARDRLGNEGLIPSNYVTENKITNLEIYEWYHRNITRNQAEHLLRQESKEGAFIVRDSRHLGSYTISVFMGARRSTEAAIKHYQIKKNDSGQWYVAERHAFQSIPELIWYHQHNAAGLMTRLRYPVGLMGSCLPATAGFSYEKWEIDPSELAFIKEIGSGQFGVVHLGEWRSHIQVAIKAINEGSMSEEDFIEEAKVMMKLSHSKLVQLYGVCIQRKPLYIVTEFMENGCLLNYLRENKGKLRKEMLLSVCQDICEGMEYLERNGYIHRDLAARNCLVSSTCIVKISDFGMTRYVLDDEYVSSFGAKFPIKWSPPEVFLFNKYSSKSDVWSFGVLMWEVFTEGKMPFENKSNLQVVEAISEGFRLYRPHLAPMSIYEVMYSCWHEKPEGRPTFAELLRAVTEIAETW
Sequence of HER2 (P04626 23-1255): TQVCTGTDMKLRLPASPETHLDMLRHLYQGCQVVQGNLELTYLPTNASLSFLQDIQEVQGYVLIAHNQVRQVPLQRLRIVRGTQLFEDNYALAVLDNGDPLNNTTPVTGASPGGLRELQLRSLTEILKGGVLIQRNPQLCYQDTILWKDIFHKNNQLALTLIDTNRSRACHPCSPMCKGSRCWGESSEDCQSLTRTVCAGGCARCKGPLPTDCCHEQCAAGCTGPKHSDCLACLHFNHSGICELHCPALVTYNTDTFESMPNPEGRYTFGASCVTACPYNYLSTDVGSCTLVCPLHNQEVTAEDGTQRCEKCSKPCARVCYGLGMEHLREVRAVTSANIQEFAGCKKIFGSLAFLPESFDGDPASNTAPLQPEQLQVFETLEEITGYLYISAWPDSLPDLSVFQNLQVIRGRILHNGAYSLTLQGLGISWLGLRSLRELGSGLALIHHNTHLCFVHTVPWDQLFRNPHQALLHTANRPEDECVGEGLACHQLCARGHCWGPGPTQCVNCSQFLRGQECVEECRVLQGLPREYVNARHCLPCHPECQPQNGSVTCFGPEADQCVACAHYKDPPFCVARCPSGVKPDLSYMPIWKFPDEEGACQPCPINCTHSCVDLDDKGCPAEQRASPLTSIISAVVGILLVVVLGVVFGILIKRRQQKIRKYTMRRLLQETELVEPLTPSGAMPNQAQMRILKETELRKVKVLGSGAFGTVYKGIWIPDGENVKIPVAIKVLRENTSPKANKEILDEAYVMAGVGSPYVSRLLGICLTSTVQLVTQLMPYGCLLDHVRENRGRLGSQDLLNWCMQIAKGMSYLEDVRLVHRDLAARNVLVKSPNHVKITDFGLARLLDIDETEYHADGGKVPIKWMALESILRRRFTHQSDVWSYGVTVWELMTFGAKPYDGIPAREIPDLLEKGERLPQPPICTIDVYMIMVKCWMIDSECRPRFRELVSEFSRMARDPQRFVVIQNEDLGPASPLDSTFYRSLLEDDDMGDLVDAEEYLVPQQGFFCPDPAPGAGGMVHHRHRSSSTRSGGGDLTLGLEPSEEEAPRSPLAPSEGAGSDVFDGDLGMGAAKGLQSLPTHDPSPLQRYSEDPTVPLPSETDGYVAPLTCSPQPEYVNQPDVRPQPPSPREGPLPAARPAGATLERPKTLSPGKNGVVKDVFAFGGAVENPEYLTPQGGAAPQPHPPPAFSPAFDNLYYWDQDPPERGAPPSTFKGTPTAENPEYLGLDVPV
Sequence of EGFR (P00533 25-1210): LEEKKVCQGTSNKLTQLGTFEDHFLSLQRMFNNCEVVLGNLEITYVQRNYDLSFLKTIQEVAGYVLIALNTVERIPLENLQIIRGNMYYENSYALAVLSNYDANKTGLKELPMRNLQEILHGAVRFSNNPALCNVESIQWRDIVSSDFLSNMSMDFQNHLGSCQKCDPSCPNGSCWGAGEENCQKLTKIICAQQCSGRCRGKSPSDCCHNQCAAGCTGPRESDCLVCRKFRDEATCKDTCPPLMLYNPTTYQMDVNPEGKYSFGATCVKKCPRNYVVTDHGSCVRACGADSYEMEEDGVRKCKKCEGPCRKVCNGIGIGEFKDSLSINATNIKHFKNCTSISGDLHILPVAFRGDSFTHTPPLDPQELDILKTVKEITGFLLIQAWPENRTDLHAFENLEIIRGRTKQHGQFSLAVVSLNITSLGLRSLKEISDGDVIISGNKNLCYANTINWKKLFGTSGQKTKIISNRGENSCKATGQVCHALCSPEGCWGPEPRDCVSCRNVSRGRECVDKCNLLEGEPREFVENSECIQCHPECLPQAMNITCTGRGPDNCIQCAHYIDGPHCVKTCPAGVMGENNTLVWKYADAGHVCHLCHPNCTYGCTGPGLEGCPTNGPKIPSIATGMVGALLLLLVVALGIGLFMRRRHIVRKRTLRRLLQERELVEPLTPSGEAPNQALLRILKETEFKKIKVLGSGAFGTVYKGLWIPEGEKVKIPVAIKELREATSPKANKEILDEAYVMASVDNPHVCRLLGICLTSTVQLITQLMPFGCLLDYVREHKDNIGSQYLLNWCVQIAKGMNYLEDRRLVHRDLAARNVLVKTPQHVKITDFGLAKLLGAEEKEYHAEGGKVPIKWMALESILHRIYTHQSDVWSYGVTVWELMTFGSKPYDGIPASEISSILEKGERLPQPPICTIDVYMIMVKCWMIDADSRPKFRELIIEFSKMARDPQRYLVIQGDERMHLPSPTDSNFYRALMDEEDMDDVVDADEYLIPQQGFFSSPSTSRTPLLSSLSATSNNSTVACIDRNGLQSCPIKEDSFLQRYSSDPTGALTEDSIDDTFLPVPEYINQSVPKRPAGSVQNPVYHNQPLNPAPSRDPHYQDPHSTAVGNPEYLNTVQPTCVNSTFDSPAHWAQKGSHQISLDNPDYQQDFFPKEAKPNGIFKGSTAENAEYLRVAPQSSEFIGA
Sequence of TEC (P42680 whole entry): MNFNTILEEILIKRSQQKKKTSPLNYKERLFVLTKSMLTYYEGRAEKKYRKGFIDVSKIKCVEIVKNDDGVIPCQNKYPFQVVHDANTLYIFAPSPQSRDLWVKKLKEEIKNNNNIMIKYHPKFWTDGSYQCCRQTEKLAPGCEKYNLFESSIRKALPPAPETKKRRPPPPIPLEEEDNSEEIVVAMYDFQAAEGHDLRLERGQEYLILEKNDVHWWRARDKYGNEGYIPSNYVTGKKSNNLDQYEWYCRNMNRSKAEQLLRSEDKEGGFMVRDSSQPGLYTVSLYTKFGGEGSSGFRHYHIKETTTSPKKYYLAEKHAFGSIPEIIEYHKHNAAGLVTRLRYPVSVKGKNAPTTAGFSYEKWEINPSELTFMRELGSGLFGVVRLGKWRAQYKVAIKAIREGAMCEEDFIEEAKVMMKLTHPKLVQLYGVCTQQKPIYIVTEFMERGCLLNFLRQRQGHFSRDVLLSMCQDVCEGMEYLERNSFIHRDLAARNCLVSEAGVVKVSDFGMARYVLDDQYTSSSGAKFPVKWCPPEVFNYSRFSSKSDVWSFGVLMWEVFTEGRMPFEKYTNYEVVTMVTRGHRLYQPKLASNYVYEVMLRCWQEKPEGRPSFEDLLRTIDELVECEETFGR
Sequence of ITK (Q08881 whole entry, species assumed): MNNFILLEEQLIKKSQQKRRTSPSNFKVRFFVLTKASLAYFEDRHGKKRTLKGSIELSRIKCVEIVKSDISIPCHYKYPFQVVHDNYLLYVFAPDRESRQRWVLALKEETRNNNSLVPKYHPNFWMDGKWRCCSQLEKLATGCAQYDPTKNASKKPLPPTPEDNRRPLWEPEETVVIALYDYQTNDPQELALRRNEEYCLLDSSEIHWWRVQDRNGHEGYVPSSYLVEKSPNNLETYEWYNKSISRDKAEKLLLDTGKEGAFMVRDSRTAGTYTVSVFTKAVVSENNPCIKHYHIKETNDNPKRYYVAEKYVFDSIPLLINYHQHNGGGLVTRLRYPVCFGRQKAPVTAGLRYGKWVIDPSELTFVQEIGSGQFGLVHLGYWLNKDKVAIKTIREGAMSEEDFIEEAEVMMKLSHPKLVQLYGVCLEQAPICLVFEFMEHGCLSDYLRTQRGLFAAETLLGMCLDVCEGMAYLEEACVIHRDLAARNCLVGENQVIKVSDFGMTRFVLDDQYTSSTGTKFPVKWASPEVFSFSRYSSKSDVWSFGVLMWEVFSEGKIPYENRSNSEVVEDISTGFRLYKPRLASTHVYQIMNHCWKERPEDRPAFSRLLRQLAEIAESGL

## C=CC(=O)N1C[C@H](n2c(C#CC3CC3)c(C(=O)N[C@H](C)c3ccccc3)c3c(N)ncnc32)C[C@@H]1C [Compound (1), 7-((3R,5S)-1-acryloyl-5-methylpyrrolidin-3-yl)-4-amino-6-(cyclopropylethynyl)-N—((R)-1-phenylethyl)-7H-pyrrolo[2,3-d]pyrimidine-5-carboxamide]
[1]
  inhibition at 1 µM: 64.7%
[2]
  inhibition at 1 µM: 98.9%
[3]
  inhibition at 1 µM: 80%
[4]
  inhibition at 1 µM: 86%
[5]
  inhibition at 1 µM: 98.3%
[6]
  inhibition at 1 µM: 72.9%
[7]
  inhibition at 1 µM: 80.4%
[8]
  inhibition at 1 µM: 100%
[9]
  inhibition at 1 µM: 98.4%
[10]
  inhibition at 1 µM: 56.4%
[11]
  inhibition at 1 µM: 99.2%
[12]
  inhibition at 1 µM: 67.2%
[13]
  inhibition at 1 µM: 81.7%
[14]
  inhibition at 1 µM: 89.4%
[15]
  number of the 257 kinases tested with ≥50% inhibition of activity: 14
[15]; weak inhibition or no inhibitory effect
  inhibition of activity for the other 243 kinases: < 50%
[16]; 7.8 mg/kg/day orally once daily 14 days
  T/C ratio of the mean tumor volume: 52.8%
[16]; 12.5 mg/kg/day orally once daily 14 days
  T/C ratio of the mean tumor volume: 17.4%
[16]; 20.0 mg/kg/day orally once daily 14 days
  T/C ratio of the mean tumor volume: 8.7%
[16]; 14 days treatment
  toxicity (deaths, clinical signs, body weight loss ≥20%): acceptable toxicity
[17]; brain and plasma (unbound), 0.5 hr after single oral 50 mg/kg
  Kp uu at 0.5 h: 0.26 ± 0.05
[17]; brain and plasma (unbound), 1 hr after single oral 50 mg/kg
  Kp uu at 1 h: 0.13 ± 0.03
[17]; brain, 0.5 hr after single oral 50 mg/kg
  Kp at 0.5 h: 0.415 ± 0.08
[17]; brain, 0.5 hr after single oral 50 mg/kg, read-out: Brain Concentration
  concentration at 0.5 h: 3590 ± 600 ng/g
[17]; brain, 1 hr after single oral 50 mg/kg
  Kp at 1 h: 0.206 ± 0.042
[17]; brain, 1 hr after single oral 50 mg/kg, read-out: Brain Concentration
  concentration at 1 h: 1290 ± 440 ng/g
[17]; plasma, 0.5 hr after single oral 50 mg/kg, read-out: Plasma Concentration
  concentration at 0.5 h: 8720 ± 650 ng/mL
[17]; plasma, 1 hr after single oral 50 mg/kg, read-out: Plasma Concentration
  concentration at 1 h: 6170 ± 910 ng/mL
[18]
  activity at 3 h, 0.01 μmol/L: 114%
  activity at 3 h, 0.1 μmol/L: 95%
  activity at 3 h, 0.5 μmol/L: 54%
  activity at 3 h, 1 μmol/L: 24%
  activity at 3 h, 5 μmol/L: 10%
  activity at 3 h, 10 μmol/L: 3%
[19]
  IC50: 332 nM
